In patent US11399541B2, “Storage-stable microbicidal concentrates and use thereof as preservatives” (Vink Chemicals GmbH & Co. KG, priority 2017, dated 2022):
Marks after values point to notes of the source that are not given here.

Assays:
Aspergillus brasiliensis = Aspergillus brasiliensis Germ Count Reduction Test; format: cell-based; conditions: use-concentration (0.50% Composition 1; 0.0025% amine; 0.0050% butyl-BIT; 0.50% phenoxyethanol), initial count approx. 10^7 cfu/ml; for semi-quantitative assessment of the microbial growth of the streaks, Contact time [h] 1: contact time 1 h; for semi-quantitative assessment of the microbial growth of the streaks, Contact time [h] 3: contact time 3 h; for semi-quantitative assessment of the microbial growth of the streaks, Contact time [h] 6: contact time 6 h; for semi-quantitative assessment of the microbial growth of the streaks, Contact time [h] 24: contact time 24 h
Procedure: (§1) Dilutions of the samples are prepared with sterile tap water. 25 ml portions of the end solutions are inoculated with 0.1 ml microorganism suspension (initial microorganism count approx. 10^7 cfu/ml) and stirred.
For testing the reduction with Aspergillus brasiliensis the solutions are streaked out onto Sabouraud-dextrose 4% agar after 1, 3, 6 and 24 hours.
(§2) The cultures are incubated for 48 hours at 37° C., except for Aspergillus brasiliensis, which is incubated for 72 hours at 25-27° C. The evaluation is made on the basis of semi-quantitative assessment of the microbial growth of the streaks.

Staphylococcus aureus = Staphylococcus aureus Germ Count Reduction Test; format: cell-based; conditions: use-concentration (0.50% Composition 1; 0.0025% amine; 0.0050% butyl-BIT; 0.50% phenoxyethanol), initial count approx. 10^7 cfu/ml; for semi-quantitative assessment of the microbial growth of the streaks, Contact time [min] 2: contact time 2 min; for semi-quantitative assessment of the microbial growth of the streaks, Contact time [min] 5: contact time 5 min; for semi-quantitative assessment of the microbial growth of the streaks, Contact time [min] 10: contact time 10 min; for semi-quantitative assessment of the microbial growth of the streaks, Contact time [min] 60: contact time 60 min
Procedure: as §1
For the reduction test with Staphylococcus aureus the solutions are streaked out onto tryptone soya agar after 2,5,10 and 60 minutes.
as §2

SMILES | semi-quantitative assessment of the microbial growth of the streaks, Contact time [h] 1 (Aspergillus brasiliensis) | semi-quantitative assessment of the microbial growth of the streaks, Contact time [h] 3 (Aspergillus brasiliensis) | semi-quantitative assessment of the microbial growth of the streaks, Contact time [h] 6 (Aspergillus brasiliensis) | semi-quantitative assessment of the microbial growth of the streaks, Contact time [h] 24 (Aspergillus brasiliensis) | semi-quantitative assessment of the microbial growth of the streaks, Contact time [min] 2 (Staphylococcus aureus) | semi-quantitative assessment of the microbial growth of the streaks, Contact time [min] 5 (Staphylococcus aureus) | semi-quantitative assessment of the microbial growth of the streaks, Contact time [min] 10 (Staphylococcus aureus) | semi-quantitative assessment of the microbial growth of the streaks, Contact time [min] 60 (Staphylococcus aureus)
CCCCn1sc2ccccc2c1=O [2-butyl-1,2-benzisothiazolin-3-one] | ++++ (= massive growth approx. 10^5) | ++++ (= massive growth approx. 10^5) | ++++ (= massive growth approx. 10^5) | ++++ (= massive growth approx. 10^5) | ++++ (= massive growth approx. 10^5) | ++++ (= massive growth approx. 10^5) | ++++ (= massive growth approx. 10^5) | +++ (= heavy growth approx. 10^4)
CCCCCCCCCCCCN(CCCN)CCCN [N,N bis(3-aminopropyl)-dodecylamine] | C (= surface covered approx. 10^6) | C (= surface covered approx. 10^6) | ++++ (= massive growth approx. 10^5) | ++++ (= massive growth approx. 10^5) | +++ (= heavy growth approx. 10^4) | ++ (= moderate growth approx. 10^3) | ++ (= moderate growth approx. 10^3) | − (= no growth <100)
